Structures are written as SMILES.

Series [1] has as its system lung cancer (A-549) cell line. Briefly: cells. The following applies: Homo sapiens, A549, read-out: Antiproliferative activity IC50 ± SEM, A-549.
Series [2] relates to breast cancer (MCF-7) cell line. Nature of the series: cells. The following applies: Homo sapiens, MCF7, read-out: Antiproliferative activity IC50 ± SEM, MCF-7.
Another series in a line: Cell viability assay. It is filed as cell-based. As to conditions: human, MCF-10A normal mammary gland epithelial cells.
The test system of series [3] is colon cancer (HT-29) cell line. Nature of the series: cells. As to conditions: Homo sapiens, HT-29, read-out: Antiproliferative activity IC50 ± SEM, HT-29.
The test system of series [4] is pancreatic cancer (Panc-1) cell line. Nature of the series: cells. The following applies: Homo sapiens, PANC-1, read-out: Antiproliferative activity IC50 ± SEM, Panc-1.
Series [5] concerns four cancer cell lines (A-549, MCF-7, Panc-1, HT-29). Briefly: Antiproliferative assay, average over the four cancer cell lines. As to conditions: for fold less potent than the reference Erlotinib (GI50): GI50 ratio vs Erlotinib.
The target in another series is VEGFR-2 (Homo sapiens, UniProt P35968). Nature of the series: VEGFR-2 inhibitory assay. It is filed as biochemical. The following applies: VEGFR-2 inhibition IC50 ± SEM.
The next series has as its target EGFR (Homo sapiens, UniProt P00533). Nature of the series: EGFR inhibitory assay. It is filed as biochemical.
Another series relates to Bax. Briefly: Bax level assay. As to conditions: A-594 cancer cell line; for Bax Fold change: vs untreated control. It is filed as cell-based, human.
The test system of a further series is Caspase-8. Nature of the series: Caspase-8 level assay. As to conditions: A-594 cancer cell line; for Caspase-8 Fold change: vs untreated control. It is filed as cell-based, human.
The subject of another series is Caspase-3. Briefly: Caspase-3 activation assay. It is filed as cell-based, human. The following applies: A-594 cancer cell line; for Caspase-3 Fold change: vs untreated control cells.
The subject of the next series is Bcl-2. Nature of the series: Bcl-2 level assay. Format: cell-based, human. The following applies: A-594 cancer cell line; for Bcl-2 Fold reduction: vs untreated control.
For series [6], the system named is panel of four cancer cell lines. As to conditions: read-out: GI50 against four cancer cell lines; cited from earlier work.

Sequence of EGFR (P00533 669-1210): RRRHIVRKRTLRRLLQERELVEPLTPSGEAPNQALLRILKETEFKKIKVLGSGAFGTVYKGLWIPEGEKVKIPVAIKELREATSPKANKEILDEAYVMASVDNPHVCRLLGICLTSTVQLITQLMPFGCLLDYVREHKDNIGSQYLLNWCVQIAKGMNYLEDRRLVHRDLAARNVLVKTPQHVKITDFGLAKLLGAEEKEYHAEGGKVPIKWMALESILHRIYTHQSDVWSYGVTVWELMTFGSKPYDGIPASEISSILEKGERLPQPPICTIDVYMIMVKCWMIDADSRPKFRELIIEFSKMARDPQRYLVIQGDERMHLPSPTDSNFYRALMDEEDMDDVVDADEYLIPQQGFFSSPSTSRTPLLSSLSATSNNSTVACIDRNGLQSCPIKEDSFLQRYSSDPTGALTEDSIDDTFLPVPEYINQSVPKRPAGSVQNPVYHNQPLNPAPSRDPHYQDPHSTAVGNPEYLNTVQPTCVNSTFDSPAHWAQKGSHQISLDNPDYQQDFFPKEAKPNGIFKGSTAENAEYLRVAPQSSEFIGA
Sequence of VEGFR-2 (P35968 20-1356): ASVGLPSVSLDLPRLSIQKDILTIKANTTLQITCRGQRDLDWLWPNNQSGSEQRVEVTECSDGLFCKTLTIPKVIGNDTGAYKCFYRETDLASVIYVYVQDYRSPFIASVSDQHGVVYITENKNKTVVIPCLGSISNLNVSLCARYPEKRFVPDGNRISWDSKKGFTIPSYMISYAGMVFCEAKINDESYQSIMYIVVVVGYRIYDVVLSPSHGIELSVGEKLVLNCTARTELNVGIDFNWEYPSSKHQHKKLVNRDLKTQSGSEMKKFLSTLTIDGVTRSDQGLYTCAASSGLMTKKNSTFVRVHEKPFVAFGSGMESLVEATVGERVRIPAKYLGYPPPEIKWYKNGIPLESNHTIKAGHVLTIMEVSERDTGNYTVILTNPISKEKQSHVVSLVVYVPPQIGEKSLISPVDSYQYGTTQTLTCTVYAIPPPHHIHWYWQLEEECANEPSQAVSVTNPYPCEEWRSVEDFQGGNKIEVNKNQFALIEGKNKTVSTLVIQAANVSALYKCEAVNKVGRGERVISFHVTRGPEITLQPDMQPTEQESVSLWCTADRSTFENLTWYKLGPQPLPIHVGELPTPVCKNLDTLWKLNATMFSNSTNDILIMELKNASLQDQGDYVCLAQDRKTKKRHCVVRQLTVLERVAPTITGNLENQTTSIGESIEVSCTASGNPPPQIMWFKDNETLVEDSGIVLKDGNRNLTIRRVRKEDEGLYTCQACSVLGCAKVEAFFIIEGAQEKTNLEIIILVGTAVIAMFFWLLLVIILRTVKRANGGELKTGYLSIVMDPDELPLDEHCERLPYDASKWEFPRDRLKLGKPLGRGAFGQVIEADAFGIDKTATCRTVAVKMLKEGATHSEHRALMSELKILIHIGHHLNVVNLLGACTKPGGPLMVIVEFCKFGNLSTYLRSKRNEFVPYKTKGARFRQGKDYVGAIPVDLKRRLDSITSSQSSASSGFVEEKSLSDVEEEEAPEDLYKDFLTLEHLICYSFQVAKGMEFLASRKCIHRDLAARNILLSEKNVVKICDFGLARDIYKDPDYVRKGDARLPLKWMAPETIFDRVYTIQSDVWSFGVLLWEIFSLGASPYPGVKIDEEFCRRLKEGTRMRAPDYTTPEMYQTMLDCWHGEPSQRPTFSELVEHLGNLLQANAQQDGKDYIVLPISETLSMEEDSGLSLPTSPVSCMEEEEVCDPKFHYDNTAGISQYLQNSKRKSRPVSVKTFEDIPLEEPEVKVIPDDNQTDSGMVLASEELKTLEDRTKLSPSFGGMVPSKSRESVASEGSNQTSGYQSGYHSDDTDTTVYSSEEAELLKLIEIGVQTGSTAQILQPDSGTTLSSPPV

Regarding `c1ccc(-c2cn(Cc3nc(-c4ccccc4)no3)nn2)cc1` [Compound 7a, 3-Phenyl-5-[(4-phenyl-1H-1,2,3-triazol-1-yl)methyl]-1,2,4-oxadiazole], the 50% inhibitory concentration (IC50) in [1] is 94 ± 9 nM; in series [2] it was 98 ± 9 nM; in series [3], 96 ± 9 nM; in series [4] it was 96 ± 9 nM. The compound further displayed a viability at 4 days, 50 µM in “Cell viability assay” of 90%. In addition, the “fold less potent than the reference Erlotinib (GI50)” value in series [5] is 3 fold.
As for `Fc1ccc(-c2noc(Cn3cc(-c4ccccc4)nn3)n2)cc1` [Compound 7b, 3-(4-Fluorophenyl)-5-[(4-phenyl-1H-1,2,3-triazol-1-yl)methyl]-1,2,4-oxadiazole], the half-maximal inhibitory concentration (IC50) in series [1] came out at 102 ± 10 nM; in [2], 106 ± 10 nM; in series [3], 104 ± 10 nM; in series [4], 104 ± 10 nM. In the series “Cell viability assay”, this compound gave a viability at 4 days, 50 µM of 91%. The “fold less active than the 3-halo-substituted derivatives 7i and 7h (GI50)” value in series [5] (GI50 ratio vs 7i and 7h) came to 2.5 fold.
As for `Clc1ccc(-c2noc(Cn3cc(-c4ccccc4)nn3)n2)cc1` [Compound 7c, 3-(4-Chlorophenyl)-5-[(4-phenyl-1H-1,2,3-triazol-1-yl)methyl]-1,2,4-oxadiazole], the IC50 in series [1] was determined as 87 ± 8 nM; in series [2], 94 ± 9 nM; in series [3], 92 ± 9 nM; in series [4], 90 ± 9 nM. In addition, the viability at 4 days, 50 µM in the series “Cell viability assay” came to 89%.
In the same order, the values of `Brc1ccc(-c2noc(Cn3cc(-c4ccccc4)nn3)n2)cc1` [Compound 7d, 3-(4-Bromophenyl)-5-[(4-phenyl-1H-1,2,3-triazol-1-yl)methyl]-1,2,4-oxadiazole] are 80 ± 8 nM, 84 ± 8 nM, 82 ± 8 nM, 80 ± 8 nM and 88%.
As to `Cc1ccc(-c2noc(Cn3cc(-c4ccccc4)nn3)n2)cc1` [Compound 7e, 3-(4-Methylphenyl)-5-[(4-phenyl-1H-1,2,3-triazol-1-yl)methyl]-1,2,4-oxadiazole], the IC50 was 98 ± 9 nM in series [1], 102 ± 9 nM in series [2], 102 ± 10 nM in [3] and 100 ± 10 nM in series [4]. In “Cell viability assay”, this compound displayed a viability at 4 days, 50 µM of 91%. Further, the “fold less potent than the reference Erlotinib (GI50)” value in series [5] amounted to 3 fold.
Regarding `COc1ccc(-c2noc(Cn3cc(-c4ccccc4)nn3)n2)cc1` [Compound 7f, 3-(4-Methoxyphenyl)-5-[(4-phenyl-1H-1,2,3-triazol-1-yl)methyl]-1,2,4-oxadiazole], the 50% inhibitory concentration (IC50) in series [1] was 48 ± 4 nM; in [2], 51 ± 5 nM; in series [3] it was 46 ± 4 nM; in series [4] it was 48 ± 4 nM. The compound also showed a viability at 4 days, 50 µM in “Cell viability assay” of 90%.
Regarding `FC(F)(F)c1ccc(-c2noc(Cn3cc(-c4ccccc4)nn3)n2)cc1` [Compound 7g, 3-(4-Trifluoromethylphenyl)-5-[(4-phenyl-1H-1,2,3-triazol-1-yl)methyl]-1,2,4-oxadiazole], the IC50 in series [1] stood at 66 ± 6 nM; in series [2] it was 68 ± 6 nM; in [3] it was 66 ± 6 nM; in series [4] it was 68 ± 6 nM. For the same compound, the viability at 4 days, 50 µM in the series “Cell viability assay” is 87%.
For the compound `Clc1cccc(-c2noc(Cn3cc(-c4ccccc4)nn3)n2)c1` [Compound 7h, 3-(3-Chlorophenyl)-5-[(4-phenyl-1H-1,2,3-triazol-1-yl)methyl]-1,2,4-oxadiazole], the IC50 was 40 ± 4 nM in [1]; 6.9 ± 0.07 nM against VEGFR-2; 44 ± 4 nM in series [2]; 42 ± 4 nM in [3]; 40 ± 4 nM in series [4]; 105 ± 10 nM against EGFR. The compound also displayed a viability at 4 days, 50 µM in “Cell viability assay” of 90%.
For `Brc1cccc(-c2noc(Cn3cc(-c4ccccc4)nn3)n2)c1` [Compound 7i, 3-(3-Bromophenyl)-5-[(4-phenyl-1H-1,2,3-triazol-1-yl)methyl]-1,2,4-oxadiazole], the 50% inhibitory concentration (IC50) in series [1] turned out to be 36 ± 3 nM; on VEGFR-2 it was 5.5 ± 0.05 nM; in [2], 39 ± 3 nM; in series [3], 37 ± 3 nM; in [4], 37 ± 3 nM; against EGFR it was 97 ± 9 nM. Further, in the series “Cell viability assay”, the viability at 4 days, 50 µM was 89%.
`Clc1ccc(-c2noc(Cn3cc(-c4ccccc4)nn3)n2)c(Cl)c1` [Compound 7j, 3-(2,4-Dichlorophenyl)-5-[(4-phenyl-1H-1,2,3-triazol-1-yl)methyl]-1,2,4-oxadiazole]: the concentration for half-maximal inhibition (IC50) in [1] stood at 33 ± 3 nM; at VEGFR-2, 4.7 ± 0.04 nM; in [2], 36 ± 3 nM; in series [3], 36 ± 3 nM; in [4] it was 34 ± 3 nM; against EGFR, 89 ± 8 nM. For the same compound, the viability at 4 days, 50 µM in “Cell viability assay” turned out to be 91%. Also, the “Bax Conc” value in the series on Bax amounted to 291 pg/mL. Moreover, the “Bax Fold change” value with Bax is listed as 32. In addition, the “Caspase-8 Conc” value with Caspase-8 was 2.00 ng/mL. Moreover, in the series with Caspase-8, the “Caspase-8 Fold change” value turned out to be 22. In addition, the “Caspase-3 Conc” value in the series on Caspase-3 is 460 ± 4 pg/mL. Moreover, the “Caspase-3 Fold change” value in the series with Caspase-3 was 7.0. Further, in the series with Bcl-2, the “Bcl-2 Conc” value worked out at 0.95 ng/mL. Further, the “Bcl-2 Fold reduction” value in the series on Bcl-2 came to 5.
Take `COc1ccc(-c2noc(Cn3cc(-c4ccccc4)nn3)n2)cc1OC` [Compound 7k, 3-(3,4-Dimethoxyphenyl)-5-[(4-phenyl-1H-1,2,3-triazol-1-yl)methyl]-1,2,4-oxadiazole]: the IC50 is 30 ± 3 nM in series [1]; 3.8 ± 0.03 nM against VEGFR-2; 35 ± 3 nM in [2]; 32 ± 3 nM in [3]; 32 ± 3 nM in series [4]; 82 ± 7 nM on EGFR. This compound also came in with a viability at 4 days, 50 µM in “Cell viability assay” of 89%. Besides, the “Bax Conc” value in the series with Bax was 310 pg/mL. For the same compound, in the series with Bax, the “Bax Fold change” value is listed as 34. Also, the “Caspase-8 Conc” value in the series with Caspase-8 is given as 2.30 ng/mL. The “Caspase-8 Fold change” value in the series with Caspase-8 was found to be 25. The “Caspase-3 Conc” value with Caspase-3 was found to be 530 ± 5 pg/mL. For the same compound, in the series with Caspase-3, the “Caspase-3 Fold change” value came out at 8. Besides, in the series with Bcl-2, the “Bcl-2 Conc” value stood at 0.80 ng/mL. The “Bcl-2 Fold reduction” value with Bcl-2 was determined as 6.
Turning to `COc1cc(-c2noc(Cn3cc(-c4ccccc4)nn3)n2)cc(OC)c1OC` [Compound 7l, 3-(3,4,5-Trimethoxyphenyl)-5-[(4-phenyl-1H-1,2,3-triazol-1-yl)methyl]-1,2,4-oxadiazole], the concentration for half-maximal inhibition (IC50) in series [1] is 26 ± 2 nM; at VEGFR-2 it was 4.7 nM; in series [2] it was 30 ± 3 nM; in [3], 28 ± 2 nM; in series [4] it was 28 ± 2 nM. This compound also had a viability at 4 days, 50 µM in “Cell viability assay” of 88%. In addition, the “Bax Conc” value in the series on Bax was 362 pg/mL. Also, in the series on Bax, the “Bax Fold change” value came to 40. Moreover, the “Caspase-8 Conc” value with Caspase-8 was found to be 2.55 ng/mL. Further, the “Caspase-8 Fold change” value in the series on Caspase-8 came out at 28. Also, the “Caspase-3 Conc” value with Caspase-3 is 587 ± 5 pg/mL. For the same compound, the “Caspase-3 Fold change” value in the series with Caspase-3 is reported as 9. The “Bcl-2 Conc” value in the series with Bcl-2 worked out at 0.60 ng/mL. Also, the “Bcl-2 Fold reduction” value with Bcl-2 amounted to 8.
With `c1ccc(-c2cn(Cc3nc(-c4cccc5ccccc45)no3)nn2)cc1` [Compound 7m, 3-(Naphthalen-1-yl)-5-[(4-phenyl-1H-1,2,3-triazol-1-yl)methyl]-1,2,4-oxadiazole], the IC50 in series [1] is 42 ± 4 nM; in series [2] it was 48 ± 4 nM; in [3], 44 ± 4 nM; in series [4], 46 ± 4 nM. In the series “Cell viability assay”, this compound gave a viability at 4 days, 50 µM of 87%. Also, the “fold less potent than the reference Erlotinib (GI50)” value in series [5] is on record as 1.4 fold.
In the case of `c1ccc(-c2cn(Cc3nc(-c4ccc5ccccc5c4)no3)nn2)cc1` [Compound 7n, 3-(Naphthalen-2-yl)-5-[(4-phenyl-1H-1,2,3-triazol-1-yl)methyl]-1,2,4-oxadiazole], the IC50 in series [1] is 68 ± 6 nM; in [2], 74 ± 7 nM; in [3], 72 ± 7 nM; in [4], 70 ± 7 nM. In “Cell viability assay”, the viability at 4 days, 50 µM is 89%. Also, in series [5] (GI50 ratio vs 7m), the “fold less potent than the 1-naphthyl derivative 7m (GI50)” value worked out at 1.7 fold. Moreover, the “fold less potent than the reference Erlotinib (GI50)” value in [5] amounted to 2.4 fold.
For the compound `c1ccc(-c2cn(Cc3nc(-c4ccc5c(c4)OCO5)no3)nn2)cc1` [Compound 7o, 3-(2H-1,3-Benzodioxol-5-yl)-5-[(4-phenyl-1H-1,2,3-triazol-1-yl)methyl]-1,2,4-oxadiazole], the IC50 in series [1] was 74 ± 7 nM; in [2], 80 ± 8 nM; in series [3] it was 76 ± 7 nM; in [4], 78 ± 7 nM. For the same compound, in “Cell viability assay”, the viability at 4 days, 50 µM stood at 91%.
As to `C#Cc1cccc(Nc2ncnc3cc(OCCOC)c(OCCOC)cc23)c1` [Erlotinib, reference compound], the IC50 was 30 ± 3 nM in series [1], 40 ± 3 nM in series [2], 30 ± 3 nM in series [3] and 30 ± 3 nM in series [4]. Besides, the GI50 in series [6] is 33 nM.
With `CN[C@@H]1C[C@H]2O[C@@](C)([C@@H]1OC)n1c3ccccc3c3c4c(c5c6ccccc6n2c5c31)C(=O)NC4` [Staurosporine, reference compound], the “Bax Conc” value in the series with Bax stood at 288 pg/mL. The “Caspase-3 Conc” value in the series on Caspase-3 was 465 ± 4 pg/mL. Also, the “Bcl-2 Conc” value with Bcl-2 is listed as 1.00 ng/mL.

The record behind these values is paper PMC10854447 (Journal of Enzyme Inhibition and Medicinal Chemistry, 2024).
